In ChEMBL document CHEMBL2007661, “Compounds: GSK PKIS; Assays: UNC Frye lab” (2012):
“And” between values parts separate entries of the source, which are not always exact repeats. Equal entries are not always repeated.

Assays:
[1] = target: T1, Inhibitor of nuclear factor kappa-B kinase subunit beta (Homo sapiens) (UniProt O14920); conditions: at 1 µM
T1 sequence (whole entry): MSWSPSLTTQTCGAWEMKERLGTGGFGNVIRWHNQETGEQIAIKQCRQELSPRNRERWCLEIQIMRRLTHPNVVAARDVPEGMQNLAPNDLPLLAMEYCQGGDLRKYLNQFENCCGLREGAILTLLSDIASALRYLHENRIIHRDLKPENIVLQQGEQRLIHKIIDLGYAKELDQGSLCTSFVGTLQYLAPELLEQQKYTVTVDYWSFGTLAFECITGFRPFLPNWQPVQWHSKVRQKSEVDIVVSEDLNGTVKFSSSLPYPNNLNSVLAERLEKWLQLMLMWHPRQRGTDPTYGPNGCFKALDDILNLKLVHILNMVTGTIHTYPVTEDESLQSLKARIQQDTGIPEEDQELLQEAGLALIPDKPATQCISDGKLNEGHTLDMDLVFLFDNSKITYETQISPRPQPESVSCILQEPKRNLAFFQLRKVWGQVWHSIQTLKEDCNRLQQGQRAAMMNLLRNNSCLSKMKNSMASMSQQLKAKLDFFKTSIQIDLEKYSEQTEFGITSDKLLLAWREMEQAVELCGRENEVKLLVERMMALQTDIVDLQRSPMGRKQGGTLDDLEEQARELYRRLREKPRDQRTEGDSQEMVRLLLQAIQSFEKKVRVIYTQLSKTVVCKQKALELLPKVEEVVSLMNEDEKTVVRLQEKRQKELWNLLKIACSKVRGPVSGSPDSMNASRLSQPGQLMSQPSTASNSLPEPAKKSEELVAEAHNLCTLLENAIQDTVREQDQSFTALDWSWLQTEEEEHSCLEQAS

[2] = target: T2, Tyrosine-protein kinase Mer (Homo sapiens) (UniProt Q12866); conditions: at 10 µM
T2 sequence (whole entry): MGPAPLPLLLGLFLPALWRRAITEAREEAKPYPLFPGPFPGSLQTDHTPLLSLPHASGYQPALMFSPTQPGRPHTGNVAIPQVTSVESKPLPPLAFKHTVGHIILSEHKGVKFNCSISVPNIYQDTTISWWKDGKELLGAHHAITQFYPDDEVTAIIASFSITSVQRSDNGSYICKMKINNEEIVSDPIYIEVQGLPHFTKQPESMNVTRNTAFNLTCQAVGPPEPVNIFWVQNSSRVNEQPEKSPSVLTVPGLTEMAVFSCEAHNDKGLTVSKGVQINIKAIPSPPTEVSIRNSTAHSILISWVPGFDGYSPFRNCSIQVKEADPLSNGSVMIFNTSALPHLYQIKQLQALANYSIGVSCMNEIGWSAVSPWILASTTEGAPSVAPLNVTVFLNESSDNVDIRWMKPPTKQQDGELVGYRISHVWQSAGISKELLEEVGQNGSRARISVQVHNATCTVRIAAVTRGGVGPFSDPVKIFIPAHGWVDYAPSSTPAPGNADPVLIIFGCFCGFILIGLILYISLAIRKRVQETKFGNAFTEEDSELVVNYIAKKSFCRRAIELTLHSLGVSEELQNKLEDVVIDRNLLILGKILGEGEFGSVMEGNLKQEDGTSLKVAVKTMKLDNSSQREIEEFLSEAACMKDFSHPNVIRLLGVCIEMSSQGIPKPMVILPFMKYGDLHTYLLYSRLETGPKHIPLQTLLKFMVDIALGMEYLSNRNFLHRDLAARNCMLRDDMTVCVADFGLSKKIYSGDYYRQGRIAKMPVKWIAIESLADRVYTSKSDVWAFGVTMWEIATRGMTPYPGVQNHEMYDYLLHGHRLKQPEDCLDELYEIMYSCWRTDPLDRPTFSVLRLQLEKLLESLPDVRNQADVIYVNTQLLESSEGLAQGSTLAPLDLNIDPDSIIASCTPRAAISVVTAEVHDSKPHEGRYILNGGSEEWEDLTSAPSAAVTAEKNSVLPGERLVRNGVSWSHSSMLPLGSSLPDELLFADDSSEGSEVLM

[3] = target: T3, Serine/threonine-protein kinase TBK1 (Homo sapiens) (UniProt Q9UHD2); conditions: at 1 µM
T3 sequence (whole entry): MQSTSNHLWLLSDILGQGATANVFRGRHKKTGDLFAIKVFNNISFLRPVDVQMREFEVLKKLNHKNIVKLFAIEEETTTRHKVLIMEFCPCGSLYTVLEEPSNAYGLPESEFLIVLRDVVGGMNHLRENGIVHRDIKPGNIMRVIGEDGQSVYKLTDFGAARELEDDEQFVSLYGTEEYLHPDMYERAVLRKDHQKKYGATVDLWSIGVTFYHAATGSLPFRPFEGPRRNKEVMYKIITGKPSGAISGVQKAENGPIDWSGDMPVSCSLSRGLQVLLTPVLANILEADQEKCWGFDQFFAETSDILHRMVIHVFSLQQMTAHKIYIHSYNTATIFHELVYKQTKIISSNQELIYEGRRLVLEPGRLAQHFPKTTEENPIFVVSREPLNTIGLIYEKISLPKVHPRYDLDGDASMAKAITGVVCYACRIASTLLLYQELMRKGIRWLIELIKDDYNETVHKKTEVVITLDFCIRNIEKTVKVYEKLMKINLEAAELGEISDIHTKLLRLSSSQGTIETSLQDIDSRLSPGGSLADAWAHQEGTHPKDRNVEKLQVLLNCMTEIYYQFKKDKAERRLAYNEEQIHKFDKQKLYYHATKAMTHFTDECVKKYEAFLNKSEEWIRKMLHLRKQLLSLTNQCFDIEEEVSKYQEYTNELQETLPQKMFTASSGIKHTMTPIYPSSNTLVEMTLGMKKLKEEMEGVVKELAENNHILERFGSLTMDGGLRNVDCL

| inhibition [1] | inhibition [2] [%] | inhibition [3] | SMILES |
| --- | --- | --- | --- |
| -5% and -6% | 6 | -4% and 0% | C#Cc1cccc(Nc2ncnc3ccc(OCCCCNCCS(C)(=O)=O)cc23)c1 |
| -4% and -6% | -3 | -1% and 0% | NS(=O)(=O)c1ccc(-c2cc3ccncc3cc2OCc2ccccc2)cc1 |
| 0% and -1% | -3 | 1% and 3% | O=C(O[C@H]1CN[C@H](C#Cc2cc3ncnc(Nc4ccc(OCc5cccc(F)c5)c(Cl)c4)c3s2)C1)N1CCOCC1 |
| 2% and 3% | 5 | 14% and 20% | O=C(O[C@H]1CN[C@H](C#Cc2cc3ncnc(Nc4ccc(Cc5ccccc5)cc4)c3s2)C1)N1CCOCC1 |
| -3% and -1% | 4 | 0% and 2% | COC(=O)Nc1nc2cc(Oc3ccc(NC(=O)Nc4cccc(Br)c4)cc3)ccc2[nH]1 |

Second part, the compound before the results:

| SMILES | inhibition [1] | inhibition [2] [%] | inhibition [3] |
| --- | --- | --- | --- |
| FC(F)(F)c1ccc(-c2nn3ncccc3c2-c2ccnc(Nc3ccc4c(c3)OCCO4)n2)cc1 | -1% and -3% | -6 | -5% and -7% |
| c1cnn2ncc(-c3ccnc(NCCCN4CCOCC4)n3)c2c1 | -2% | 81 | -2% and -4% |
| COc1ccc2ncn(-c3cc(O[C@H](C)c4ccccc4C(F)(F)F)c(C(N)=O)s3)c2c1 | 0% and -2% | 3 | -8% and -6% |
| CCn1c(-c2nonc2N)nc2c(C#CC(C)(C)O)nc(OC[C@@H](N)c3ccccc3)cc21 | -6% and -5% | -1 | 6% and 7% |
| COC(=O)Nc1nc2ccc(Sc3ccc(NC(=O)Nc4cc(C(F)(F)F)ccc4F)cc3)cc2[nH]1 | -3% | 21 | -3% |
| COc1cc2c(cc1Nc1nc(Nc3cccc(F)c3C(N)=O)c3cc[nH]c3n1)N(C(=O)CN1CCN(C(C)C)CC1)CC2 | -1% and -3% | -7 | -2% and -6% |
| CCn1c(-c2nonc2N)nc2c(C#CCN)ncc(OCCCN)c21 | -3% and -6% | -4 | 1% and 4% |
| COc1cc(/C=N/Nc2ncnc3[nH]ncc23)ccc1O | -10% | 6 | 31% and 33% |
| COc1ccc2ncn(-c3cc(O[C@H](C)c4ccccc4Cl)c(C(N)=O)s3)c2c1 | 6% and 3% | 86 | 0% and -4% |
